Assay results: PubChem BioAssay AID1963445 (Molecular Pharmacology Branch, DTP, NCI, 2024)
pIC50: −log10 of the molar value. One block for each compound: values may come before it.

Tested on: MCF7 complex spheroid growth, % test/control
Assay: Anticancer human tumor MCF7 cell line growth inhibition [Asc];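 note: spheroids exposed to compounds for 7 days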;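 for viability, T/C: 100% = DMSO vehicle control wells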
Conditions: for pIC50: curve of first compound; for viability, T/C: stronger effect = lower value
Protocol: Multicellular complex tumor spheroid response to apoptosis pathway targeting inhibitors Alrizomadlin, Pelcitoclax, and Dasminapant in combination with a variety of drugs and investigational agents in selected tumor cell lines
The MDM2 inhibitor alrizomadlin, the Bcl-2/Bcl-xL inhibitor pelcitoclax, and the IAPs inhibitor dasminapant were evaluated both individually and in combination with standard of care and investigational anticancer small molecules within a complex spheroid model of solid tumors. . Complex spheroids include a stromal component modeled by human endothelial cells (HUVEC) and fibroblasts modeled by human mesenchymal stem cells (MSCs). The concentration ranges selected for each drug and investigational agent were based upon clinically achievable concentrations if the clinical Cmax of the agent was known.
Compounds. The drugs and investigational agents: alrizomadlin (APG-115; NSC831270), pelcitoclax (APG-1252; NSC835773), dasminapant (APG-1387;NSC834197), TAK-243 (NSC785004), copanlisib (NSC809693), olaparib (NSC753686), talazoparib (NSC767125), cobimetinib (NSC 768068), eltanexor (KPT-8602, NSC 794443), abemaciclib (NSC 768073), sotorasib (NSC818433), adagrasib (NSC 831453), MRTX-1133 (NSC 836407), Iadademestat (ORY1001, NSC 806812), and RMC-4630 (NSC839698), were obtained from the NCI Developmental Therapeutics Program Chemical Repository. The FDA-approved anticancer drug set is available from the Developmental Therapeutics Program at https://dtp.cancer.gov/organization/dscb/obtaining/available plates.htm. […] The stock solutions were prepared in dimethyl sulfoxide (DMSO, Sigma-Aldrich, St. Louis, MO, cat. D2650) at 800-fold the tested concentration and stored at -70 degrees C prior to their use. All drugs and investigational agents were tested over a range starting from a high concentration at or near the clinical Cmax and decreasing in half-log increments. If the clinical Cmax for an agent had not been determined, the highest concentration tested was 10 microM.
The patient-derived cancer (PDC) cell lines include five colon adenocarcinomas: 186277-243-T-J2-PDC, 616215-338-R-J1-PDC, 439559-082-T-J2-PDC, 463943-066-T-J2-PDC, and 519858-162-T-J1-PDC; three pancreatic carcinomas: 323965-272-R-J2-PDC, 521955-158-R6-J3-PDC, and 521955-158-R2-J5-PDC; two uterine sarcomas: 327498-152-R-J2-PDC and 993429-296-R-J1-PDC; two rhabdomyosarcomas: 755483-174-R-J1-PDC and 772245-204-R-J1-PDC; two soft tissue sarcomas: 126254-015-R-J1-PDC and 494315-158-R-J1-PDC; two malignant fibrous histiocytomas: 317291-083-R-J1-PDC and 596521-263-R-J1-PDC; two breast carcinomas: 171881-019-R-J1-PDC and 885512-296-R-J2-PDC; and one ovarian carcinoma: 6556581-035-R-J-PDC were obtained from the NCI PDMR, (https://pdmr.cancer.gov). The established cell lines HSSY-2 synovial sarcoma (RRID:CVCL 8719), SYO-1 synovial sarcoma (RRID:CVCL_7146), MPNST malignant peripheral neural sheath tumor were obtained from the Sloan Kettering Institute. The following established cell lines were purchased from the American Type Culture Collection (ATCC, Manassas, VA), Sor the received from the NCI repository:, PANC-1 pancreatic carcinoma (CRL-1469, RRID:CVCL_0480), OVCAR-5 ovarian carcinoma (RRID:CVCL_1628), OVCAR-8 ovarian carcinoma (RRID:CVCL_1629), , MCF-7 breast carcinoma (CRL-12584, RRID:CVCL_0031), MDA-MB-231 breast carcinoma (CRL-12532, RRID:CVCL_0062), NCI-H1876 small cell lung carcinoma (CRL-5902, RRID:CVCL_1503), NCI-H510A small cell lung carcinoma (HTB-184, RRID:CVCL_1565), NCI-H1417 (CRL-5869, RRID:CVCL_1469), and NCI-H196 small cell lung carcinoma (CRL-5823, RRID:CVCL_1509). Dr. Peter Houghton (Greehey Children's Cancer Research Institute, University of Texas Health Science Center, San Antonio, TX) provided Rh-18 rhabdomyosarcoma (RRID:CVCL_1659). Pooled donor human umbilical vein endothelial cells (HUVEC, Lonza, cat. CC-2519) and human mesenchymal stem cells (hMSC, Lonza, cat. PT-2501) were purchased from Lonza (Walkersville, MD).
Cell Culture. […]

[1] = second compound 0.0316 µM, first compound 0.0316 µM
[2] = second compound 0.0316 µM, first compound 0.1 µM
[3] = second compound 0.0316 µM, first compound 0.316 µM
[4] = second compound 0.0316 µM, first compound 1 µM
[5] = second compound 0.1 µM, first compound 0.0316 µM
[6] = second compound 0.1 µM, first compound 0.1 µM
[7] = second compound 0.1 µM, first compound 0.316 µM
[8] = second compound 0.1 µM, first compound 1 µM
[9] = second compound 0.316 µM, first compound 0.0316 µM
[10] = second compound 0.316 µM, first compound 0.1 µM
[11] = second compound 0.316 µM, first compound 0.316 µM
[12] = second compound 0.316 µM, first compound 1 µM
[13] = second compound 1 µM, first compound 0.0316 µM
[14] = second compound 1 µM, first compound 0.1 µM
[15] = second compound 1 µM, first compound 0.316 µM
[16] = second compound 1 µM, first compound 1 µM
[17] = second compound 3.16 µM, first compound 0.0316 µM
[18] = second compound 3.16 µM, first compound 0.1 µM
[19] = second compound 3.16 µM, first compound 0.316 µM
[20] = second compound 3.16 µM, first compound 1 µM
[21] = second compound 10 µM, first compound 0.0316 µM
[22] = second compound 10 µM, first compound 0.1 µM
[23] = second compound 10 µM, first compound 0.316 µM
[24] = second compound 10 µM, first compound 1 µM

pIC50 (second compound 0.0316 µM): 7.50
pIC50 (second compound 0.1 µM): 7.42
pIC50 (second compound 0.316 µM): 7.40
pIC50 (second compound 1 µM): 7.48
pIC50 (second compound 3.16 µM): 7.48
pIC50 (second compound 10 µM): 7.12
SMILES: COc1c(OCCCN2CCOCC2)ccc2c3n(c(=NC(=O)c4cnc(N)nc4)nc12)CCN3 + Cc1c(S(C)(=O)=O)c(-c2cc(F)cc(N3CCN(c4ccc(NS(=O)(=O)c5ccc(NC(CCN6CCC(C(=O)OCCCP(=O)(O)O)CC6)CSc6ccccc6)c(S(=O)(=O)C(F)(F)F)c5)cc4)CC3)c2)c(-c2ccc(Cl)cc2)n1C(C)C
viability, T/C (second compound 0.0316 µM, first compound 0.00316 µM): 89.8%
viability, T/C (second compound 0.0316 µM, first compound 0.01 µM): 73%
viability, T/C [1]: 48.7%
viability, T/C [2]: 33%
viability, T/C [3]: 12%
viability, T/C [4]: 11.4%
viability, T/C (second compound 0.1 µM, first compound 0.00316 µM): 77.6%
viability, T/C (second compound 0.1 µM, first compound 0.01 µM): 69%
viability, T/C [5]: 53.1%
viability, T/C [6]: 33.2%
viability, T/C [7]: 11.2%
viability, T/C [8]: 9.98%
viability, T/C (second compound 0.316 µM, first compound 0.00316 µM): 72.9%
viability, T/C (second compound 0.316 µM, first compound 0.01 µM): 72.2%
viability, T/C [9]: 53.9%
viability, T/C [10]: 30.3%
viability, T/C [11]: 10.3%
viability, T/C [12]: 11.9%
viability, T/C (second compound 1 µM, first compound 0.00316 µM): 73.6%
viability, T/C (second compound 1 µM, first compound 0.01 µM): 68%
viability, T/C [13]: 50.5%
viability, T/C [14]: 27.4%
viability, T/C [15]: 12.9%
viability, T/C [16]: 13.1%
viability, T/C (second compound 3.16 µM, first compound 0.00316 µM): 76.5%
viability, T/C (second compound 3.16 µM, first compound 0.01 µM): 64.6%
viability, T/C [17]: 52.2%
viability, T/C [18]: 30.4%
viability, T/C [19]: 11.8%
viability, T/C [20]: 13.4%
viability, T/C (second compound 10 µM, first compound 0.00316 µM): 171%
viability, T/C (second compound 10 µM, first compound 0.01 µM): 164%
viability, T/C [21]: 103%
viability, T/C [22]: 34.7%
viability, T/C [23]: 14.6%
viability, T/C [24]: 11.9%

pIC50 (second compound 0.0316 µM): < 5.00
pIC50 (second compound 0.1 µM): < 5.00
pIC50 (second compound 0.316 µM): < 5.00
pIC50 (second compound 1 µM): < 5.00
pIC50 (second compound 3.16 µM): < 5.00
pIC50 (second compound 10 µM): < 5.00
SMILES: C#Cc1c(F)ccc2cc(O)cc(-c3ncc4c(N5CC6CCC(C5)N6)nc(OCC56CCCN5CC(F)C6)nc4c3F)c12 (centres undefined) + Cc1c(S(C)(=O)=O)c(-c2cc(F)cc(N3CCN(c4ccc(NS(=O)(=O)c5ccc(NC(CCN6CCC(C(=O)OCCCP(=O)(O)O)CC6)CSc6ccccc6)c(S(=O)(=O)C(F)(F)F)c5)cc4)CC3)c2)c(-c2ccc(Cl)cc2)n1C(C)C
viability, T/C [1]: 96.2%
viability, T/C [2]: 90%
viability, T/C [3]: 89.6%
viability, T/C [4]: 92.3%
viability, T/C (second compound 0.0316 µM, first compound 3.16 µM): 98.4%
viability, T/C (second compound 0.0316 µM, first compound 10 µM): 91.8%
viability, T/C [5]: 104%
viability, T/C [6]: 103%
viability, T/C [7]: 87.5%
viability, T/C [8]: 84.1%
viability, T/C (second compound 0.1 µM, first compound 3.16 µM): 83.4%
viability, T/C (second compound 0.1 µM, first compound 10 µM): 82.5%
viability, T/C [9]: 91%
viability, T/C [10]: 83%
viability, T/C [11]: 73.7%
viability, T/C [12]: 86.7%
viability, T/C (second compound 0.316 µM, first compound 3.16 µM): 88.6%
viability, T/C (second compound 0.316 µM, first compound 10 µM): 86.5%
viability, T/C [13]: 86%
viability, T/C [14]: 95.9%
viability, T/C [15]: 81.9%
viability, T/C [16]: 82.6%
viability, T/C (second compound 1 µM, first compound 3.16 µM): 79%
viability, T/C (second compound 1 µM, first compound 10 µM): 85.7%
viability, T/C [17]: 80.3%
viability, T/C [18]: 77.7%
viability, T/C [19]: 88.7%
viability, T/C [20]: 72.5%
viability, T/C (second compound 3.16 µM, first compound 3.16 µM): 74.1%
viability, T/C (second compound 3.16 µM, first compound 10 µM): 80.5%
viability, T/C [21]: 272%
viability, T/C [22]: 226%
viability, T/C [23]: 251%
viability, T/C [24]: 292%
viability, T/C (second compound 10 µM, first compound 3.16 µM): 249%
viability, T/C (second compound 10 µM, first compound 10 µM): 196%
